Source: ChEMBL document CHEMBL2094269, “WEHI/Eskitis Trypanosoma b. brucei screening data”
pIC50: −log10 of the molar value. Values joined by “and” are separate entries in the source; they are usually repeats but may differ in a detail not shown here. Identical values can stand only once.

Tests used:
[1] = system: Trypanosoma brucei brucei; experiment: microbe, parasite or virus in culture; type: functional, organism-based, STIB 795
Description: DNDI: Inhibition of Human African Trypanosomiasis (HAT), STIB 795, in vitro

[2] = DNDI: Cytotoxicity against human MRC-5 lung fibroblast cells.; conditions: IC50

Row | SMILES | pIC50 ([1]; Trypanosoma brucei, STIB 795) | pIC50 [2] | pIC50 [1]
1 | CCN(CC)c1ccc(/C=N\NC(=O)Cn2nnc3ccccc32)c(O)c1 | 6.26 | < 4.38 | –
2 | CCOc1cc(CNCCO)cc(Cl)c1OCc1ccccc1F | 5.61 | < 4.68 | –
3 | CCCCOc1ccc(CSC(=N)N)cc1 | 5.26 | < 4.68 | –
4 | C/C(=N\NC(=O)Cc1ccc(F)cc1)c1ccccn1 | 5.29 | < 5.38 | –
5 | O=C1c2ccccc2C(=O)c2c1ccc1nonc21 | 6.40 | < 4.68 | –
6 | O=C(N/N=C(\c1ccccc1)c1ccccn1)c1ccccc1Cl | 5.75 | < 5.38 | –
7 | CCN1C=Cc2ccccc2/C1=C\c1ccc2ccccc2[n+]1CC | 7.07 | < 5.38 | –
8 | CCN(CC)c1ccc(/C=C/C2=[N+](C)c3ccc(C(=O)OC)cc3C2(C)C)cc1 | 7.25 | 5.41 | –
9 | O=C1c2ccccc2C(=O)N1/N=C/c1ccccc1 | 6.14 | < 4.38 | –
10 | CC(C)NCC(O)COc1cccc2c(=O)c3ccccc3sc12 (stereo not given) | 5.26 | < 4.68 | –
11 | COc1ccccc1C(NC(=O)C1CCCCC1)c1ccc2cccnc2c1O (stereo not given) | 4.96 | < 4.38 | –
12 | Cc1cc(C)c(OCCCCCCN2CCNCC2)c(Br)c1 | 5.99 | < 4.68 | –
13 | CC1(C)N=C(N)N=C(N)N1OCc1ccc(F)c(-c2ccc(F)cc2)c1 | ≥ 5.84 | < 5.68 | –
14 | Cn1c(-c2cccnc2)nn(C2CC(=O)C3OCC2O3)c1=S (stereo not given) | 5.63 | < 4.68 | –
15 | CC(NCCC(c1ccccc1)C1CCOC(C)(C)C1)c1ccccc1 (stereo not given) | 5.31 | < 4.38 | –
16 | CCN(CC)CCn1c(=N)n(CC(=O)c2ccc(C)cc2)c2ccccc21 | 5.33 | < 4.38 | 5.30
17 | Cc1cc(C2=CC(C)(C)NC(C)(C)C2)sc1C1=CC(C)(C)NC(C)(C)C1 | 5.32 | < 4.38 | –
18 | Cc1ccccc1C(=O)O/N=C(\N)c1ccccc1 | 6.06 | < 4.68 | –
19 | CNC(C)(C)Cc1c2c(cc3c1CCC3)CCC2 | 5.34 | < 4.38 | –
20 | CCCOc1ccc(C(=O)Nc2ccc(Cc3ccncc3)cc2)cc1 | 5.91 | 5.34 | –
21 | COCc1cc(O)nc(Nc2nc3ccc(C)cc3o2)n1 | 5.29 | < 4.68 | –
22 | COc1cccc(NC(=O)CSc2cccc3cccnc23)c1 | 5.24 | < 4.38 | –
23 | Oc1c(C(Nc2ccccn2)c2ccccc2Cl)ccc2cccnc12 (stereo not given) | 5.03 | < 4.68 | –
24 | Cc1cccc2ccc(/C=C/c3ccc(N(C)C)cc3)[n+](C)c12 | > 8.40 | < 5.38 | –

Row | SMILES | pIC50 ([1]; Trypanosoma brucei, STIB 795) | pIC50 [2] | pIC50 [1]
25 | CCOc1ccc2nc3cc(NCc4ccccc4OC)ccc3c(N)c2c1 | 5.34 | < 4.68 | –
26 | CC1(C)CC(=O)C/C(=N\NC(=O)c2sc3ccccc3c2Cl)C1 | 5.66 | < 4.38 | –
27 | COc1cc2nc(-c3cccnc3)nc(N3CCC[C@H]3CO)c2cc1OC | 5.27 | < 4.68 | –
28 | CN(C)CCn1c(=N)n(CC(O)c2ccc(Cl)c(Cl)c2)c2ccccc21 (stereo not given) | 5.97 | < 5.38 | –
29 | CCN(CC)c1ccc(/C=N/NC(=O)c2cccs2)c(O)c1 | 4.90 | < 4.38 | –
30 | COc1ccccc1C1N=C(c2ccc(Cl)cc2)CC(c2ccccc2O)N1 (stereo not given) | 5.28 | < 4.38 | –
31 | C/C(=N\NC(=O)c1cccc2ccccc12)c1ccccn1 | 5.63 | < 5.38 | –
32 | CC(C)(C)c1ccc(/C(=N\NC(=N)N)c2ccc(Cl)cc2)cc1 | 5.96 | < 4.68 | –
33 | CC(C)C1N=C(c2ccc3c(c2)OCO3)CC(c2cc(Cl)ccc2O)N1 (stereo not given) | 5.25 | < 4.38 | –
34 | CCCC[n+]1c(/C=C2/C=CN(CC)c3ccc(C)cc32)ccc2ccccc21 | 6.44 | < 5.38 | –
35 | CN(C)CCCC1c2ccccc2Sc2ccc(Cl)cc2C1O (stereo not given) | 5.23 | < 4.68 | –
36 | N#Cc1ccc(-c2ccncc2)nc1SCCN1CCCCC1 | 5.13 | < 4.38 | –
37 | CCN(CC)CCCCN(CCc1ccccc1)Cc1ccc(O)cc1 | 5.34 | < 4.38 | –
38 | Cc1c(-c2cccc(NC(=O)c3cccs3)c2)nc2ncccn12 | 5.29 | < 4.38 | –
39 | O=S(=O)(Nc1cccc2cccnc12)c1ccccc1O | 6.28 | < 4.98 | –
40 | CCOC(=O)C1CCCN(Cc2cc(Cl)c3cccnc3c2O)C1 (stereo not given) | 5.29 | < 5.38 | –
41 | C/C(=N\NC(=O)CCCNc1cccc(C)c1)c1ccccn1 | 5.40 | < 4.98 | –
42 | CN1CCN(Nc2ccnc3cc4ccccc4cc23)CC1 | 6.45 | 5.47 | –
43 | Cc1c(Br)c(C(=O)N/N=C/c2c(O)ccc3ccccc23)nn1C | ≥ 4.98 | < 4.68 | –
44 | COc1ccc(C2=NC3(CCN(C(C)C)CC3)NC(c3ccccc3O)C2)cc1 (stereo not given) | 5.86 | < 4.68 | –
45 | CN(C)c1ccc2nc3ccc(=[N+](C)C)cc-3sc2c1 [METHYLENE BLUE CATION] | > 7.70 | < 5.68 | –
46 | CCC(=O)N(CC(CC(C)C)N1CCN(C)CC1)c1ccc(C2CCCC2)cc1 (stereo not given) | 5.32 | < 4.38 | –
47 | Cc1cc(N2CCN(C)CC2)c2[nH]c3ccccc3c2c1 | 6.13 | 5.14 | –
48 | C[N+](CC#CC1CC1)(C1CCCCC1)C1CCCCC1 | 5.05 | < 4.38 | –

Row | SMILES | pIC50 ([1]; Trypanosoma brucei, STIB 795) | pIC50 [2] | pIC50 [1]
49 | CCN(CC)c1ccc(C2N(C)c3ccccc3N2C)cc1 | 5.60 | < 4.38 | –
50 | COc1c(S(=O)(=O)c2ccc(C)c(F)c2)cnc2ccc(Cl)cc12 | 5.51 | < 4.68 | –
51 | COc1ccc(OCC(=O)N/N=C(\C)c2ccccn2)cc1 | 5.28 | < 4.68 | –
52 | COc1cc(Cl)cc2c1Sc1ccccc1CC2N1CCNCC1 (stereo not given) | 5.38 | < 4.68 | –
53 | O=C(CC(Nc1ccc2ccccc2c1)c1ccncc1)c1cccnc1 (stereo not given) | 6.08 | < 4.38 | –
54 | COc1ccc(C(=O)O/N=C(\N)c2ccc(OC)c(OC)c2)c(OC)c1 | 5.88 | < 4.38 | –
55 | Cc1nnc(N/N=C/c2cc(Cl)ccc2O)nc1O | 5.44 | 5.32 | –
56 | NC(N)=N/N=C1/C(=O)Nc2ccc(F)cc21 | 5.85 | < 4.38 | –
57 | Cc1cccc(NCc2ccc(O)c3ncccc23)n1 | 5.31 | < 4.68 | –
58 | Cc1ccccc1C(=O)O/N=C(\N)Cc1cccs1 | 6.38 | < 4.68 | –
59 | CC1(C)CC2CC(C)(CN2C(=O)COCc2cc(-c3cccs3)on2)C1 (stereo not given) | 5.26 | < 4.38 | –
60 | COc1ccc(NCC2COc3ccccc3C2=O)cc1 (stereo not given) | 5.31 | < 4.38 | –
61 | CC1CC2=C(C(=O)c3ccccc3C2=O)C(C)O1 (stereo not given) | 5.25 | < 4.38 | –
62 | C/C(=N\NC(=O)c1cccc(I)c1)c1ccc(O)cc1O | 5.72 | 5.43 | –
63 | Cc1ccc(O)c(NC(=O)c2nc(N)n(C)n2)c1 | 6.71 | 5.74 | –
64 | N=c1n(CCOc2ccccc2)c2ccccc2n1CCN1CCCCC1 | – | < 4.68 | 5.53 and < 4.98
65 | NCC12CC3CC(C1)CC(c1ccc(Br)cc1)(C3)C2 | 6.16 | 5.17 | –
66 | NC1=NC(CCc2ccccc2)N(OCCCc2ccccc2)C(N)=N1 (stereo not given) | ≥ 5.56 | < 5.38 | –
67 | Cc1nc2c(cc(O)c3ccccc32)s1 | 5.26 | < 4.38 | –
68 | Clc1ccc(OCCCCCN2CCNCC2)c(Cl)c1 | 5.45 | < 4.38 | –
69 | N/C(=N\OC(=O)C12CC3CC(CC(C3)C1)C2)c1ccccc1Cl | 6.43 | < 4.38 | –
70 | CCC1CCCCN1S(=O)(=O)c1ccc(-c2ccno2)cc1OC (stereo not given) | 5.56 | < 4.38 | –
71 | CC(C)NCC(O)COc1cc2ccsc2c2ccccc12 (stereo not given) | 5.81 | 5.12 | –
72 | CNCc1ccccc1Sc1cccc2ccccc12 | 5.32 | < 4.38 | –

Row | SMILES | pIC50 ([1]; Trypanosoma brucei, STIB 795) | pIC50 [2] | pIC50 [1]
73 | COc1ccc(-c2cs/c(=N\CC3CCNCC3)n2-c2ccccc2)cc1 | 5.24 | < 4.68 | –
74 | Oc1c(Br)cc(CN2CCOCC2)c2cccnc12 | 5.96 | < 4.68 | –
75 | O=C(N/N=C/c1cc(I)ccc1O)c1ccccc1O | 4.35 | < 5.38 | –
76 | Oc1c(CN2CCC(Cc3ccccc3)CC2)cc(Cl)c2cccnc12 | 5.33 | < 4.68 | –
77 | CC(C)n1c(=N)n(CCOc2ccc(Br)cc2)c2ccccc21 | 5.69 | < 5.38 | –
78 | C=CCc1ccc(OCCCCCN2CCNCC2)c(OC)c1 | 5.50 | < 4.38 | –
79 | N=C(NOC(=O)N1CCOCC1)c1ccccc1 | 5.92 | < 5.38 | –
80 | CCc1cccc(-n2nnnc2N2CCN(C(=O)Nc3ccc(F)cc3)CC2)c1 | 5.38 | < 4.38 | –
81 | N/C(Cc1cccs1)=N\OC(=O)C12CC3CC(CC(C3)C1)C2 | 6.90 | < 4.68 | –
82 | O=C(Nc1c2ccccc2nc2ccccc12)c1ccncc1 | 5.92 | 5.24 | –
83 | c1coc(CNc2c3ccccc3nc3ccccc23)c1 | 5.56 | < 5.38 | –
84 | Cc1cc(Cl)c2c(N)c(C)cc(C)c2n1 | 5.39 | < 4.38 | –
85 | Cc1cc(C)nc(Nc2nc(N)c3ccccc3n2)n1 | 5.42 | 5.22 | –
86 | N#CC1=C(N)Oc2[nH]nc(C(F)(F)F)c2C1c1cccs1 (stereo not given) | 5.26 | < 4.38 | 5.27
87 | [O-][n+]1onc2cc(Cl)c3nonc3c21 | 5.28 | < 5.38 | –
88 | CN(C)c1ccc(/C=C/c2cc(-c3ccccc3)n(-c3ccccc3)[n+]2C)cc1 | 6.17 | < 4.68 | –
89 | Cc1ccc(/C(=C\CCNCCN)c2ccccc2)cc1 | 6.57 | < 4.68 | –
90 | COc1ccccc1C/C(N)=N/OC(=O)c1ccc(OC)c(OC)c1 | 6.25 | < 5.38 | –
91 | COc1ccc(N2C(=O)CN(Cc3ccccc3)C2=S)cc1Cl | 5.26 | < 4.38 | –
92 | Cc1cccc(C(=O)O/N=C(\N)c2ccncc2)c1 | 5.27 | < 4.38 | –
93 | CCN(CC)c1ccc(/C=N/NC(=O)c2ccncc2)c(O)c1 | 5.42 | < 5.38 | 5.13
94 | NC(=O)c1ccc(Nc2ccccc2)[nH]c1=O | 5.26 | 5.28 | –
95 | CC(=O)Cc1ccc2cccc(O)c2n1 | 5.34 | < 5.38 | –
96 | CN1CCN(C2Cc3ccccc3Sc3ccc(N(C)C)cc32)CC1 (stereo not given) | 5.30 | < 4.38 | –
